Experimental data from patent publication US20080058324A1, “Alpha-Keto Carbonyl Calpain Inhibitors” (SANTHERA PHARMACEUTICALS (SCHWEIZ) AG, priority 2004, published 2008).
pIC50: −log10 of the molar value.

Columns and labels:
[1] = tested on: cellular calpains in C2C12 myoblasts; test: Calpain Inhibition Assay in C2C12 Myoblasts; format: cell-based; settings: read-out: Calp I IC50 Myoblast
Experimental: This assay is aimed at monitoring the ability of the substance to inhibit cellular calpains. C2C12 myoblasts are grown in 96-well plates in growth medium (DMEM, 20% foetal calf serum) until they reach confluency. The growth medium is then replaced by fusion medium (DMEM, 5% horse serum). 24 hours later the fusion medium is replaced by fusion medium containing the test substances dissolved in 1 μl DMSO. After 2 hours of incubation at 37° C. the cells are loaded with the calpain fluorogenic substrate Suc-Leu-Tyr-AMC at 400 μM in 50 μl of a reaction buffer containing 135 mM NaCl; 5 mM KCl; 4 mM CaCl2; 1 mM MgCl2; 10 mM Glucose; 10 mM HEPES pH 7.25 for 20 min at room temperature. The calcium influx, necessary to activate the cellular calpains, is evoked by the addition of 50 μl reaction buffer containing 20 μM of the calcium ionophore Br-A-23187 (Molecular Probes). The fluorescence of the cleavage product AMC is measured as described above during 60 min at 37° C. at intervals of 1 min. The IC50 values are determined as described above. Comparison of the IC50 determined in the enzymatic calpain inhibition assay to the IC50 determined in the C2C12 myoblasts calpain inhibiton assay, allows to evaluate the cellular uptake or the membrane permeability of the substance.

human μ-calpain = molecular target: T1, human μ-calpain (Homo sapiens, UniProt P07384); test: Enzymatic Calpain Inhibition Assay; format: biochemical; settings: read-out: Calp I IC50
T1 construct: purchased Calbiochem
T1 sequence (P07384 1-714): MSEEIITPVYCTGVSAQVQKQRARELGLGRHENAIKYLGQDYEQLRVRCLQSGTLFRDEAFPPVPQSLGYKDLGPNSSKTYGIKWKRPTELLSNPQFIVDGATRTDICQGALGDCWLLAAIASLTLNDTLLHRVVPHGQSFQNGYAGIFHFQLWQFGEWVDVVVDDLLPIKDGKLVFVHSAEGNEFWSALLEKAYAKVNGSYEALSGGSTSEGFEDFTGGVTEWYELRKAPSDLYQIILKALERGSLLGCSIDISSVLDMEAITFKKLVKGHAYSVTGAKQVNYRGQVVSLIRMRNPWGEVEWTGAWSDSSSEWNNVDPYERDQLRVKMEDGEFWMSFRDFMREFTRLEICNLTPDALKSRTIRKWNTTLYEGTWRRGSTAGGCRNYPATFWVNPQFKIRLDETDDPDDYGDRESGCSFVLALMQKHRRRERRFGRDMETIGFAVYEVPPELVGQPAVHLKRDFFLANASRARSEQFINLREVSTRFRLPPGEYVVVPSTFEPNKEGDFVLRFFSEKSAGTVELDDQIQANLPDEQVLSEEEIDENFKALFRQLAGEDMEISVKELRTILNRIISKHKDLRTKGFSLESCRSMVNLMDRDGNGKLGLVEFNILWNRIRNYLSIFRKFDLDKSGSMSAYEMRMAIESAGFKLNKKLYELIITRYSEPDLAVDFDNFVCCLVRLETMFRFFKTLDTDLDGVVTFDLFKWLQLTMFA
T1 sequence (P04632 1-268 partner): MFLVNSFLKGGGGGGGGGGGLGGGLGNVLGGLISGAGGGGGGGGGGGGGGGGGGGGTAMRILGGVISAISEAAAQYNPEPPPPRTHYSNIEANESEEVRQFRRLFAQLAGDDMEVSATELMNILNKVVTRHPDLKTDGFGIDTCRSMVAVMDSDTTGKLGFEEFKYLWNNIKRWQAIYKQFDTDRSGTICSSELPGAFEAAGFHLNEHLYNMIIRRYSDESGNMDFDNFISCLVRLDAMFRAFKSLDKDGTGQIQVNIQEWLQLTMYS
Experimental: The Ki value was also determined in some cases. These criteria were used to measure the inhibitory effect of the compounds (I) on calpain I, calpain II and cathepsin B.
The inhibitory properties of calpain inhibitors are tested in 100 μl of a buffer containing 100 mM imidazole pH 7.5, 5 mM L-Cystein-HCl, 5 mM CaCl2, 250 μM of the calpain fluorogenic substrate Suc-Leu-Tyr-AMC (Sigma) (Sasaki et al., J. Biol. Chem., 1984, 259, 12489-12949) dissolved in 2.5 μl DMSO and 0.5 μg of human μ-calpain (Calbiochem). The inhibitors dissolved in 1 μl DMSO are added to the reaction buffer. The fluorescence of the cleavage product 7-amino-4-methylcoumarin (AMC) is followed in a SPECTRAmax GEMINI XS (Molecular Device) fluorimeter at λex=360 nm and λem=440 nm at 30° C. during 30 min at intervals of 30 sec in 96-well plates (Greiner). The initial reaction velocity at different inhibitor concentrations is plotted against the inhibitor concentration and the IC50 values determined graphically.

20S Proteasome = molecular target: T2, 20S Proteasome (Oryctolagus cuniculus, UniProt G1T4Q9); test: 20S Proteasome Assay; format: biochemical, Rabbit; settings: read-out: 20S Prot IC50
T2 sequence (G1T4Q9 60-263): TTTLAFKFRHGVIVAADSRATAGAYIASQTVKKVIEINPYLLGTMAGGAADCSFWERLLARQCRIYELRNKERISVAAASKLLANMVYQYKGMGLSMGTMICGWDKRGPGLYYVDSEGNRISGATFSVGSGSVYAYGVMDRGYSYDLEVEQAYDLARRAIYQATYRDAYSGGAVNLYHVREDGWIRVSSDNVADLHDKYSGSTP
Experimental: 25 μl of a reaction buffer containing 400 μM of the fluorogenic substrate Suc-Leu-Leu-Val-Tyr-AMC (Bachem) are dispensed per well of a white microtiter plate. Test compounds dissolved in 0.5 μl DMSO are added. To start the reaction; 25 μl of reaction buffer containing 35 ng of enzyme (20S Proteasome, Rabbit, Calbiochem) are added. The increase in fluorescence (excitation at 360 nm; emission at 440 nm) is measured over 30 min at 30° C. at 30″. The IC50's are then determined from the slopes.

[2] = tested on: experimental muscular dystrophy in hamster; settings: Journal of Pharmacobiodynamics, 1987, 10, 678; cited from earlier work

Row | melting point [°C] | pIC50 [1] | pIC50 (human μ-calpain) | pIC50 (20S Proteasome) | Compound | life-prolonging effect [2]
1 | 244 to 246 | 7.70 | 7.62 | 7.38 | CCNC(=O)C(=O)C(Cc1ccc(Cl)cc1)NC(=O)C(NC(=O)C(Cc1ccccc1)NC(=O)CCc1cccs1)C(C)C (centres unmarked) [Example 3] | –
2 | – | – | – | – | CCOC(=O)[C@H]1O[C@@H]1C(=O)N[C@@H](CC(C)C)C(=O)NCCC(C)C [Example E-64-d] | life-prolonging effect
